Experimental findings from patent US20230407373A1 (priority 2020, published 2023) are described below.

Where two headings read alike, the source gives them in different places.

Assay type in all cases: binding
The subject of one assay is HCoV-OC43 gRNA and sgRNA. The following applies: for target (unweighted spectral count, OC43 Probe II capture) / target (unweighted spectral count): tested against no-probe control; for target (unweighted spectral count, OC43 Probe II capture): FDR<10%; for target (unweighted spectral count): OC43 Probe II, infected cells; for target (unweighted spectral count, OC43 Probe II) / background (unweighted spectral count, no-probe control): type n_48_v, 48 hpi; for target (unweighted spectral count, OC43 Probe II): OC43 Probe II capture on infected cells; for background (unweighted spectral count, no-probe control): no-probe control on infected cells; for target (spectral count) / background (spectral count): type s_36_m, Probe II; for target (spectral count): HCoV-OC43-infected HCT-8 cells; for background (spectral count): uninfected-probe control.

The test system of assay [1] is SARS-CoV-2 gRNA and sgRNAs. The settings on record: for target (unweighted spectral count in RNP capture): Probe II capture, LC-MS/MS LFQ; for background (unweighted spectral count in control): no-probe control pull-down, used as background for Probe II; for target (unweighted spectral count of the protein in the RNP capture experiment): LC-MS/MS label-free quantification, probe pool not given; for back-ground (unweighted spectral count of the protein in the control experiment): protein background of the control (e.g. no-probe) experiment.

A further assay concerns gRNA of HCoV-OC43. The following applies: for target (spectral count) / background (spectral count): type g_36_m, 36 hpi, Probe I; for target (spectral count): HCoV-OC43-infected HCT-8 cells; for background (spectral count): uninfected-probe control.
Where [2] appears, read: type n_48_v: 48 hours post-infection, infected cells, OC43 Probe I, unweighted spectral count.
The mark [3] stands for this setting: type n_48_v: 48 hours post-infection, no-probe control on infected cells.

On to LARP4, for which, in the assay with HCoV-OC43 gRNA and sgRNA (36 hpi, type n_36_v), the “target (unweighted spectral count, OC43 Probe II capture)” value is on record as 4. In assay [1], the “target (unweighted spectral count in RNP capture)” value came out at 10 and the “background (unweighted spectral count in control)” value was 1.
Regarding LARP4B, the “target (unweighted spectral count)” value with HCoV-OC43 gRNA and sgRNA (24 hpi (type n_24_v)) is 6. Besides, in the assay with HCoV-OC43 gRNA and sgRNA, the “target (unweighted spectral count, OC43 Probe II)” value was found to be 6 and the “background (unweighted spectral count, no-probe control)” value was determined as 1. In assay [1], the “target (unweighted spectral count of the protein in the RNP capture experiment)” value is recorded as 6 and the “back-ground (unweighted spectral count of the protein in the control experiment)” value (“back-ground” for short) came out at 1.
As to LGALS3, in the assay on HCoV-OC43 gRNA and sgRNA, the “target (unweighted spectral count, OC43 Probe II)” value was determined as 5 and the “background (unweighted spectral count, no-probe control)” value is recorded as 1.
As to LSM14A, in assay [1], the “target (unweighted spectral count in RNP capture)” value was 8 and the “background (unweighted spectral count in control)” value amounted to 1.
With MPG, the “target (unweighted spectral count)” value with HCoV-OC43 gRNA and sgRNA (12 hpi (type n_12_v)) is 4.
MYH9: the “target (unweighted spectral count, OC43 Probe II capture)” value in the assay on HCoV-OC43 gRNA and sgRNA (24 hpi, type n_24_v) was determined as 6. For the same substance, in the assay with HCoV-OC43 gRNA and sgRNA, the “target (unweighted spectral count, OC43 Probe II)” value was 9 and the “background (unweighted spectral count, no-probe control)” value worked out at 1. In assay [1], the “target (unweighted spectral count of the protein in the RNP capture experiment)” value was determined as 9 and the “back-ground” value is recorded as 2.
NSP8: in the assay with gRNA of HCoV-OC43, the “background (spectral count, no-probe control)” value came out at 1 and the “target (spectral count, OC43 Probe I RNP capture)” value is 5.
Regarding NUMA1, in the assay on HCoV-OC43 gRNA and sgRNA (12 hpi (type n_12_v)), the “target (unweighted spectral count)” value worked out at 5.
As to PLEC, in the assay with HCoV-OC43 gRNA and sgRNA, the “target (unweighted spectral count, OC43 Probe II)” value came out at 6 and the “background (unweighted spectral count, no-probe control)” value is recorded as 1.
Regarding PPP1CA, in the assay on HCoV-OC43 gRNA and sgRNA (36 hpi, type n_36_v), the “target (unweighted spectral count, OC43 Probe II capture)” value was 4.
For PRPF8, the “target (unweighted spectral count, OC43 Probe II capture)” value with HCoV-OC43 gRNA and sgRNA (24 hpi, type n_24_v) stood at 7. In the assay on HCoV-OC43 gRNA and sgRNA, the “target (unweighted spectral count, OC43 Probe II)” value was determined as 20 and the “background (unweighted spectral count, no-probe control)” value was 5.
In the case of PRRC2A: host protein, UniProt P48634, in the assay with HCoV-OC43 gRNA and sgRNA (36 hpi, type n_36_v), the “target (unweighted spectral count, OC43 Probe II capture)” value amounted to 10. Also, the “target (unweighted spectral count)” value in the assay on HCoV-OC43 gRNA and sgRNA (24 hpi (type n_24_v)) is recorded as 8. Further, in the assay with HCoV-OC43 gRNA and sgRNA, the “target (unweighted spectral count, OC43 Probe II)” value worked out at 9 and the “background (unweighted spectral count, no-probe control)” value is 1. For the same substance, in the assay with gRNA of HCoV-OC43, the “target (spectral count)” value stood at 12 and the “background (spectral count)” value is 1. In addition, in the assay on gRNA of HCoV-OC43 (setting [2]), the “target (spectral count, OC43 Probe I RNP capture)” value is 9. The “background (spectral count, no-probe control)” value with gRNA of HCoV-OC43 (setting [3]) came out at 1.
Turning to RBPMS, in assay [1], the “target (unweighted spectral count of the protein in the RNP capture experiment)” value worked out at 5 and the “back-ground” value is given as 1.
For RP22L1, in assay [1], the “target (unweighted spectral count in RNP capture)” value was found to be 7 and the “background (unweighted spectral count in control)” value was determined as 1.
Take SNRNP70: host protein, UniProt P08621: in the assay with HCoV-OC43 gRNA and sgRNA, the “target (unweighted spectral count, OC43 Probe II)” value was found to be 8 and the “background (unweighted spectral count, no-probe control)” value was 2. Further, in the assay on gRNA of HCoV-OC43, the “target (spectral count)” value came to 9 and the “background (spectral count)” value worked out at 1.
In the case of SQSTM1: host protein, UniProt Q13501, in the assay with gRNA of HCoV-OC43, the “target (spectral count)” value is recorded as 7 and the “background (spectral count)” value stood at 1. Besides, in assay [1], the “target (unweighted spectral count in RNP capture)” value turned out to be 19 and the “background (unweighted spectral count in control)” value came out at 1.
As for SSRP1, the “target (unweighted spectral count, OC43 Probe II capture)” value in the assay on HCoV-OC43 gRNA and sgRNA (24 hpi, type n_24_v) worked out at 4.
For the substance SUPT16H, in the assay with HCoV-OC43 gRNA and sgRNA (12 hpi (type n_12_v)), the “target (unweighted spectral count)” value is recorded as 4.
For TCP1, the “target (unweighted spectral count, OC43 Probe II capture)” value in the assay on HCoV-OC43 gRNA and sgRNA (36 hpi, type n_36_v) came out at 4.
As for TUBB4B, in assay [1], the “target (unweighted spectral count of the protein in the RNP capture experiment)” value is listed as 6 and the “back-ground” value was 1.
Regarding USP10, the “target (unweighted spectral count, OC43 Probe II capture)” value is on record as 5 in the assay with HCoV-OC43 gRNA and sgRNA (24 hpi, type n_24_v); 4 in the assay on HCoV-OC43 gRNA and sgRNA (36 hpi, type n_36_v). In addition, in the assay on HCoV-OC43 gRNA and sgRNA, the “target (unweighted spectral count, OC43 Probe II)” value was determined as 7. The “background (unweighted spectral count, no-probe control)” value in the assay on HCoV-OC43 gRNA and sgRNA is 1. For the same substance, in the assay on gRNA of HCoV-OC43 (setting [2]), the “target (spectral count, OC43 Probe I RNP capture)” value was 6. For the same substance, the “background (spectral count, no-probe control)” value in the assay on gRNA of HCoV-OC43 (setting [3]) turned out to be 1.
For the substance XRCC5: host protein, UniProt P13010, in the assay on HCoV-OC43 gRNA and sgRNA (36 hpi, type n_36_v), the “target (unweighted spectral count, OC43 Probe II capture)” value is 7. Also, in the assay on HCoV-OC43 gRNA and sgRNA, the “target (unweighted spectral count, OC43 Probe II)” value turned out to be 12 and the “background (unweighted spectral count, no-probe control)” value is 1. Further, in the assay with HCoV-OC43 gRNA and sgRNA (36 hpi), the “target (spectral count)” value came out at 7 and the “background (spectral count)” value is 1. For the same substance, in the assay on gRNA of HCoV-OC43, the “target (spectral count)” value came out at 8 and the “background (spectral count)” value is reported as 1. Further, in the assay on gRNA of HCoV-OC43 (setting [2]), the “target (spectral count, OC43 Probe I RNP capture)” value was determined as 10. Also, the “background (spectral count, no-probe control)” value with gRNA of HCoV-OC43 (setting [3]) was 1.
For the substance YBX2: host protein, UniProt Q9Y2T7, in the assay on HCoV-OC43 gRNA and sgRNA (36 hpi, type n_36_v), the “target (unweighted spectral count, OC43 Probe II capture)” value was found to be 9. Besides, in the assay on HCoV-OC43 gRNA and sgRNA, the “target (unweighted spectral count, OC43 Probe II)” value was 8 and the “background (unweighted spectral count, no-probe control)” value was determined as 1. In the assay with HCoV-OC43 gRNA and sgRNA (36 hpi), the “target (spectral count)” value worked out at 9 and the “background (spectral count)” value is 1.
Turning to ZC3H7B, the “target (unweighted spectral count)” value with HCoV-OC43 gRNA and sgRNA (24 hpi (type n_24_v)) stood at 6.
As to ZFR, the “target (unweighted spectral count, OC43 Probe II capture)” value with HCoV-OC43 gRNA and sgRNA (24 hpi, type n_24_v) is reported as 4. Besides, in the assay on HCoV-OC43 gRNA and sgRNA, the “target (unweighted spectral count, OC43 Probe II)” value was determined as 6 and the “background (unweighted spectral count, no-probe control)” value is listed as 1.
